Drawing on ChEMBL document CHEMBL2157891 (J Med Chem, 2012), this text covers IC50, Activity and Ki for eleven compounds.

Active and inactive are the calls of the source. The rule behind the calls is not given here.

The test system of assay [1] is MDA-MB-231. Kind of assay: cells. The following applies: Homo sapiens, MDA-MB-231, 96 h.
In assay [2] the test system is SK-OV-3. Kind of assay: cells. The following applies: Homo sapiens, SK-OV-3, 96 h.
The test system of assay [3] is SK-OV-3. In words: Induction of apoptosis in human SKOV3 cells assessed as caspase 8 cleavage at 10 nM after 24 hrs by Western blot analysis. It is filed as functional, cell-based. (A western blot detects proteins with antibodies after separation by electrophoresis.)
In assay [4] the test system is MDA-MB-231. Kind of assay: Induction of apoptosis in human MDA-MB-231 cells assessed as caspase 3 cleavage at 10 nM after 24 hrs by Western blot analysis. The format is functional, cell-based.
Assay [5] concerns MDA-MB-231. In words: Induction of apoptosis in human MDA-MB-231 cells assessed as caspase 8 cleavage at 10 nM after 24 hrs by Western blot analysis. The format is functional, cell-based.
Assay [6] deals with MDA-MB-231. In words: Induction of apoptosis in human MDA-MB-231 cells assessed as PARP cleavage at 300 nM after 24 hrs by Western blot analysis. It is filed as functional, cell-based.
In assay [7] the test system is SK-OV-3. In words: Induction of apoptosis in human SKOV3 cells assessed as PARP cleavage at 300 nM after 24 hrs by Western blot analysis. It is filed as functional, cell-based.
Assay [8] deals with SK-OV-3. Kind of assay: Induction of apoptosis in human SKOV3 cells assessed as caspase 3 cleavage at 10 nM after 24 hrs by Western blot analysis. The format is functional, cell-based.
For assay [9], the system named is SK-OV-3. In words: Induction of apoptosis in human SKOV3 cells assessed as PARP cleavage at 3 nM after 24 hrs by Western blot analysis. The format is functional, cell-based.
In assay [10] the test system is SK-OV-3. Kind of assay: Induction of apoptosis in human SKOV3 cells assessed as caspase 3 cleavage at 3 nM after 24 hrs by Western blot analysis. The format is functional, cell-based.
Assay [11] deals with MDA-MB-231. Kind of assay: Induction of apoptosis in human MDA-MB-231 cells assessed as PARP cleavage at 3 nM after 24 hrs by Western blot analysis. It is filed as functional, cell-based.
The test system of assay [12] is MDA-MB-231. Kind of assay: Induction of apoptosis in human MDA-MB-231 cells assessed as caspase 8 cleavage at 3 nM after 24 hrs by Western blot analysis. It is filed as functional, cell-based.
In assay [13] the test system is MDA-MB-231. Kind of assay: Induction of apoptosis in human MDA-MB-231 cells assessed as caspase 3 cleavage at 3 nM after 24 hrs by Western blot analysis. The format is functional, cell-based.
The subject of assay [14] is SK-OV-3. Kind of assay: Induction of apoptosis in human SKOV3 cells assessed as caspase 8 cleavage at 3 nM after 24 hrs by Western blot analysis. It is filed as functional, cell-based.
The target in assay [15] is Baculoviral IAP repeat-containing protein 2 (Homo sapiens, UniProt Q13490). In words: Binding affinity to BIR3 domain of cIAP1 by fluorescence polarization assay. For orientation: Polarisation of emitted light reports the rotation of a fluorescent probe.

Turning to `CN[C@@H](C)C(=O)N[C@H]1CN(C(=O)CCC(=O)N2CC[C@H]3CC[C@@H](C(=O)NC(c4ccccc4)c4ccccc4)N3C(=O)[C@@H](NC(=O)[C@H](C)NC)C2)CC[C@H]2CC[C@@H](C(=O)NC(c3ccccc3)c3ccccc3)N2C1=O`, the IC50 – broadly, the concentration that inhibits the measured activity by half – was 13.8 nM in the assay on MDA-MB-231 [1] and 27 nM with SK-OV-3 [2].

Take `CN[C@@H](C)C(=O)N[C@H]1CN(C(=O)CCCCC(=O)N2CC[C@H]3CC[C@@H](C(=O)NC(c4ccccc4)c4ccccc4)N3C(=O)[C@@H](NC(=O)[C@H](C)NC)C2)CC[C@H]2CC[C@@H](C(=O)NC(c3ccccc3)c3ccccc3)N2C1=O`: the values for the IC50 with MDA-MB-231 [1] and in the assay with SK-OV-3 [2] were 14.8 nM and 9.9 nM, respectively.

Take `CN[C@@H](C)C(=O)N[C@H]1CN(C(C)=O)CC[C@H]2CC[C@@H](C(=O)NC(c3ccccc3)c3ccccc3)N2C1=O`: the outcome in the assay with SK-OV-3 [3], in the assay on MDA-MB-231 [4], with MDA-MB-231 [5], with MDA-MB-231 [6], in the assay on SK-OV-3 [7] and with SK-OV-3 [8] was Active. Also, the IC50 in the assay with MDA-MB-231 [1] was 115 nM; with SK-OV-3 [2], 250 nM.

On to `CN[C@@H](C)C(=O)N[C@H]1CN(C(=O)CCCCCCC(=O)N2CC[C@H]3CC[C@@H](C(=O)NC(c4ccccc4)c4ccccc4)N3C(=O)[C@@H](NC(=O)[C@H](C)NC)C2)CC[C@H]2CC[C@@H](C(=O)NC(c3ccccc3)c3ccccc3)N2C1=O`, for which the IC50 in the assay on MDA-MB-231 [1] is 17.2 nM; in the assay on SK-OV-3 [2], 11 nM.

Turning to `CN[C@@H](C)C(=O)N[C@H]1CN(C(=O)CCCCCCCCC(=O)N2CC[C@H]3CC[C@@H](C(=O)NC(c4ccccc4)c4ccccc4)N3C(=O)[C@@H](NC(=O)[C@H](C)NC)C2)CC[C@H]2CC[C@@H](C(=O)NC(c3ccccc3)c3ccccc3)N2C1=O`, the result in the assay on SK-OV-3 [9], in the assay on SK-OV-3 [10], in the assay on MDA-MB-231 [11], in the assay with MDA-MB-231 [12], in the assay on MDA-MB-231 [13] and in the assay with SK-OV-3 [14] was Active. Also, the IC50 amounted to 7.5 nM in the assay with MDA-MB-231 [1] and 3.1 nM with SK-OV-3 [2].

As to `CN[C@@H](C)C(=O)N[C@H]1CCCC[C@H]2CC[C@@H](C(=O)N[C@@H](c3ccccc3)c3cn(CCCCCCCCn4cc([C@@H](NC(=O)[C@@H]5CC[C@@H]6CCCC[C@H](NC(=O)[C@H](C)NC)C(=O)N65)c5ccccc5)nn4)nn3)N2C1=O`, in assay [15], the IC50 was determined as 2.8 nM and the Ki (in general, a dissociation constant, usually derived from enzyme kinetics or from competition with a known ligand) was less than 0.5 nM.

Regarding `CN[C@@H](C)C(=O)N[C@H]1CN(C(=O)c2ccc(C(=O)N3CC[C@H]4CC[C@@H](C(=O)NC(c5ccccc5)c5ccccc5)N4C(=O)[C@@H](NC(=O)[C@H](C)NC)C3)cc2)CC[C@H]2CC[C@@H](C(=O)NC(c3ccccc3)c3ccccc3)N2C1=O`, the half-maximal inhibitory concentration (IC50) amounted to 50.8 nM in the assay on MDA-MB-231 [1] and 180 nM with SK-OV-3 [2].

For the compound `CN[C@@H](C)C(=O)N[C@H]1CN(C(=O)CCCCCCCCCCC(=O)N2CC[C@H]3CC[C@@H](C(=O)NC(c4ccccc4)c4ccccc4)N3C(=O)[C@@H](NC(=O)[C@H](C)NC)C2)CC[C@H]2CC[C@@H](C(=O)NC(c3ccccc3)c3ccccc3)N2C1=O`, the IC50 with MDA-MB-231 [1] came out at 10.6 nM; in the assay on SK-OV-3 [2] it was 12 nM.

`CN[C@@H](C)C(=O)N[C@H]1CCCC[C@H]2CC[C@@H](C(=O)N[C@@H](c3ccccc3)c3cn(CCCCc4ccc(CCCCn5cc([C@@H](NC(=O)[C@@H]6CC[C@@H]7CCCC[C@H](NC(=O)[C@H](C)NC)C(=O)N76)c6ccccc6)nn5)cc4)nn3)N2C1=O` had a Ki in assay [15] of 0.5 nM. Moreover, the IC50 with MDA-MB-231 [1] was 6.8 nM; with SK-OV-3 [2], 16 nM.

`CN[C@@H](C)C(=O)N[C@H]1CN(C(=O)CCCCOCCCCC(=O)N2CC[C@H]3CC[C@@H](C(=O)NC(c4ccccc4)c4ccccc4)N3C(=O)[C@@H](NC(=O)[C@H](C)NC)C2)CC[C@H]2CC[C@@H](C(=O)NC(c3ccccc3)c3ccccc3)N2C1=O`: the IC50 in the assay on MDA-MB-231 [1] and with SK-OV-3 [2] was 4.7 nM throughout.

As for `CN[C@@H](C)C(=O)N[C@H]1CN(C(=O)CCCCc2ccc(CCCCC(=O)N3CC[C@H]4CC[C@@H](C(=O)NC(c5ccccc5)c5ccccc5)N4C(=O)[C@@H](NC(=O)[C@H](C)NC)C3)cc2)CC[C@H]2CC[C@@H](C(=O)NC(c3ccccc3)c3ccccc3)N2C1=O`, the outcome in the assay on SK-OV-3 [9], in the assay with SK-OV-3 [10], in the assay on MDA-MB-231 [11], with MDA-MB-231 [12], with MDA-MB-231 [13] and in the assay on SK-OV-3 [14] was Active. In addition, the IC50 was 3.4 nM in the assay with MDA-MB-231 [1] and 9.6 nM in the assay on SK-OV-3 [2].
